From paper PMC8835475, “Salviolone from Salvia miltiorrhiza Roots Impairs Cell Cycle Progression, Colony Formation, and Metalloproteinase-2 Activity in A375 Melanoma Cells: Involvement of P21(Cip1/Waf1) Expression and STAT3 Phosphorylation” (International Journal of Molecular Sciences, 2022)

What was measured:
MeWo melanoma cell line = assay: SRB cell viability assay in MeWo cells; assay type: cell-based, human; conditions: for inhibition of melanoma cell viability: 20 µM; for inhibition of melanoma cell viability / EC50: 72 h; for EC50: Homo sapiens, read-out: EC50 useful in diminishing cell viability; for EC50 / viability reduction in melanoma cells: SRB; for viability reduction in melanoma cells: 40–60 µM
Description: In preliminary experiments, the evaluation of cell viability at different time after compound administration was carried out with sulforhodamine B (SRB) assay. Indeed, after 24-, 48-, and 72-h treatment, an evident time dependence in the inhibition of cell growth was registered (data not shown). Thus, to evaluate A375 and MeWo cell viability, we decided to perform further SRB experiments with each compound only after 72 h.
(§1) Human MeWo (HTB-65) and A375 (CRL-1619) melanoma cell lines as well as the normal human epidermal melanocyte (NHEM) (PCS-200-013) cell line (ATCC, Manassas, VA, USA) were cultured at 37 °C under 5% CO2 in a humidified atmosphere. Roswell Park Memorial Institute 1640 medium (RPMI, Gibco, Ref.21875, Thermo Scientific, Waltham, MA, USA) was used to culture MeWo cells, while Dulbecco’s Modified Eagle Medium (DMEM, Gibco, Ref. 61965, Thermo Scientific, Waltham, MA, USA) was used for A375 and NHEM cell lines. The culture media were supplemented with 10% fetal bovine serum (FBS, Gibco, Thermo Scientific, Waltham, MA, USA) plus 1% Antibiotic Antimycotic Solution (Gibco, Thermo Scientific). The MEK1 inhibitor U0126 (CAY-70970) and the PI3K inhibitor LY294002 (CAY-70920) were provided by Cayman Chemical, Ann Arbor, MI, USA.
(§2) Melanoma MeWo and A375 cells or NHEM were seeded in 96-well plates (5.0 × 10^3 cells/well for MeWo cells and 2.9 × 10^3 cells/well for A375 or NHEM). After 24-h culture, the cells were treated with different concentrations of compounds 1–7. After 72-h treatment, the cells were fixed by adding 25 µL/well of 50% (w/v) TCA directly into the culture medium. The plates were incubated at 4 °C for 1 h, washed four times with ddH2O, and dried at RT. Staining was performed by adding 50 µL/well of 0.04% (w/v) sulforhodamine B (SRB) sodium salt solution (Sigma-Aldrich, Milan, Italy). After 1-h incubation at RT, the plates were rinsed with 1% HAc and air-dried. SRB was solubilized in a 10 mM Tris-base solution pH 10.5 and Abs492 measured in the plate reader TECAN NanoQuant Infinite M200 Pro (Tecan Group Ltd., Männedorf, Switzerland). Six replicates for each condition/data point were performed.

[1] = tested on: normal human epithelial melanocyte (NHEM) cell line; assay: SRB cell viability assay in NHEM cells; assay type: cell-based; conditions: for effect on NHEM viability: 10–20 µM; for reduction of NHEM viability: 40–60 µM
Description: as §1, §2

A375 melanoma cells = assay: Soft agar colony formation assay; assay type: cell-based, human; conditions: A375, 5 and 10 µM, 21-day culture
Description: Before seeding, 6-well plates were prepared with soft agar, as follows: the bottom layer was filled with 1% low-gelling temperature agarose and 2X DMEM, supplemented with 20% FBS and 2% Antibiotic Antimycotic Solution (Gibco, BRL Invitrogen Corp., Carlsbad, CA, USA). After 30 min, cells (5000 cell/well) were suspended in 0.6% agarose and 2X DMEM supplemented with 20% FBS and 2% Antibiotic Antimycotic Solution (Gibco, BRL Invitrogen Corp., Carlsbad, CA, USA) and placed over the 0.5% agarose layer. Then, either cryptotanshinone (4) or salviolone (7) at 5–10 μM was added directly into each well and 100 μL of fresh media was added twice a week for 3 weeks. The semi-solid cultures were performed in triplicate and images captured.

MMP2 gelatinase activity = assay: Gelatin zymography of MMP2 activity in A375 cells; assay type: cell-based, human; conditions: A375, 10 and 20 µM, gel zymography
Description: A gel zymography assay can measure the ability of matrix metalloproteinases (MMPs) to digest their substrate gelatin present in the gel. Thus, the zymographic approach allows sensitive and quantifiable analysis of the activity of MMPs that can be recognized by their molecular weight. […] Both compounds 7 and 4 at 10 and 20 µM inhibited MMP2 gelatinase activity in the A375 melanoma cell line (Figure 6B).
A375 cells were cultured in the presence of 10 or 20 µM cryptotanshinone (4), salviolone (7), or 1 µM onconase (provided by Prof. G. Gotte), as a positive control, for 48 h and then they were serum starved for 24 h. The conditioned medium was collected and 10× concentrated with an Amicon Ultra-2 Centrifugal filter unit (Merck-Millipore, Milan, Italy). Protein concentrations were determined with Coomassie (Thermo Fisher Scientific, Waltham, MA, USA) and samples treated with a non-reducing sample buffer. To separate proteins, a 7.5% SDS-PAGE was performed. The gel contained 4 mg/mL of gelatin (Sigma-Aldrich, Milan, Italy) and was washed with 50 mM Tris-HCl pH 7.5, 5 mM CaCl2, and 1 μM ZnCl2 supplemented with 2.5% Triton X-100 (Serva Electrophoresis, Heidelberg, Germany). […] The gel was stained with 0.5% Coomassie Brilliant Blue R-250 in 20% ethanol/10% acetic acid, and the gelatinase activity was detected by evaluating the presence and intensity of clear bands on the blue background.

Structure (SMILES)	inhibition of melanoma cell viability (MeWo melanoma cell line)	EC50 (MeWo melanoma cell line)	viability reduction in melanoma cells (MeWo melanoma cell line)	effect on NHEM viability [1]	reduction of NHEM viability [1]	number and dimension of colonies formed on soft agar (A375 melanoma cells)	MMP2 gelatinase activity (MMP2 gelatinase activity)
C[C@H]1COC2=C1C(=O)C(=O)c1c2ccc2c1CCCC2(C)C [Compound 4, cryptotanshinone]	about 50%	17 µM	70–80%	did not affect	20%	decreased	inhibited
Cc1cc2ccc3c(c2cc(O)c1=O)CCCC3(C)C [Compound 7, salviolone]	about 50%	22 µM	70–80%	did not affect	20%	decreased	inhibited
